Consider twelve molecules from ChEMBL document CHEMBL3044593, “Design, synthesis and anticonvulsant evaluation of novel 8-substituted-4(3H)-quinazolines” (Med Chem Res, 2012).

Data set [1] deals with Mus musculus. Put plainly: Anticonvulsant activity in Mus musculus (mouse) assessed as protection against picrotoxin-induced seizures at 0.5 mmol/kg, ip administered 30 min prior to seizure induction measured for 60 min relative to control. Type of data set: functional, organism-based.
In data set [2] the test system is Mus musculus. Put plainly: Anticonvulsant activity in Mus musculus (mouse) assessed as protection against strychnine-induced seizures at 0.5 mmol/kg, ip administered 30 min prior to seizure induction measured for 60 min relative to control. Format: functional, organism-based.
The test system of data set [3] is Mus musculus. In words: Anticonvulsant activity in Mus musculus (mouse) assessed as protection against pentylenetetrazol-induced seizures at 0.5 mmol/kg, ip administered 30 min prior to seizure induction measured for 60 min relative to control. Format: functional.
Data set [4] deals with Mus musculus. In words: Anticonvulsant activity in Mus musculus (mouse) assessed as protection against maximal electroshock-induced seizures at 0.5 mmol/kg, ip administered 30 min prior to seizure induction measured for 60 min relative to control. Type of data set: functional. (In general: In the maximal electroshock model the usual endpoint is tonic extension of the hind limbs.)

Data set [5] can be described thus: Toxicity in ip dosed Mus musculus (mouse) assessed as mortality. To be noted: in vivo. Format: organism-based.
The nature of data set [6]: Therapeutic index, ratio of LD50 for ip dosed Mus musculus (mouse) to ED50 for protection against pentylenetetrazol-induced seizures in ip dosed mouse. Format: organism-based. To be noted: in vivo, read-out: Ratio LD50/ED50.
The nature of data set [7]: Acute neurotoxicity in ip dosed Mus musculus (mouse) assessed as motor impairment administered 30 min prior to testing measured for 30 secs by chimney test. The note with it: in vivo. Format: toxicity, organism-based.
In data set [8] the test system is Mus musculus. Put plainly: Anticonvulsant activity in ip dosed Mus musculus (mouse) assessed as protection against pentylenetetrazol-induced seizures administered 30 min prior to seizure induction measured for 60 min. Type of data set: functional.
Data set [9] has as its system Mus musculus. In words: Anticonvulsant activity in Mus musculus (mouse) assessed as protection against maximal electroshock-induced seizures at 1.5 mmol/kg, ip administered 30 min prior to seizure induction measured for 60 min relative to control. Format: functional.
The subject of data set [10] is Mus musculus. Put plainly: Anticonvulsant activity in Mus musculus (mouse) assessed as protection against pentylenetetrazol-induced seizures at 1.5 mmol/kg, ip administered 30 min prior to seizure induction measured for 60 min relative to control. Format: functional.
Data set [11] has as its system Mus musculus. In words: Protective index, ratio of TD50 for ip dosed Mus musculus (mouse) to ED50 for protection against pentylenetetrazol-induced seizures in ip dosed mouse. Format: functional.
The test system of data set [12] is Mus musculus. In words: Anticonvulsant activity in Mus musculus (mouse) assessed as protection against maximal electroshock-induced seizures at 1.4 mmol/kg, ip administered 30 min prior to seizure induction measured for 60 min relative to control. Type of data set: functional.
For data set [13], the system named is Mus musculus. In words: Anticonvulsant activity in Mus musculus (mouse) assessed as protection against pentylenetetrazol-induced seizures at 1.4 mmol/kg, ip administered 30 min prior to seizure induction measured for 60 min relative to control. Type of data set: functional.

The structures appear in SMILES notation. The source made the active and inactive calls. No cut-off for these calls is given here.

`Cc1ccccc1-n1c(C)nc2c(OCC(=O)N/N=C\c3ccccc3F)cccc2c1=O`: the outcome in the data set on Mus musculus [1] and in the data set on Mus musculus [2] was inactive. Moreover, the Activity in the data set with Mus musculus [3] was 66%; in the data set on Mus musculus [4] it was 50%.
The term LD50 denotes the dose at which mortality reaches 50%. Broadly, the TD50 is the 50% point of the dose-response relation for the toxic effect studied. For orientation: ED50 means the midpoint of the dose-response relation. `CCOC(=O)NNC(=O)COc1cccc2c(=O)n(-c3ccccc3C)c(C)nc12`: in data set [5], the 50% lethal dose (LD50) came out at 1020 µmol/kg. The result in the data set with Mus musculus [1] and in the data set on Mus musculus [2] was inactive. The selectivity ratio in data set [6] is 1.51. Also, in data set [7], the TD50 at 0.5 min was found to be 600 µmol/kg. Further, the Activity in the data set with Mus musculus [3] and in the data set on Mus musculus [4] was 100% throughout. In addition, the ED50 in the data set with Mus musculus [8] came to 390 µmol/kg.
`Cc1ccccc1-n1c(C)nc2c(OCC(=O)N/N=C\c3ccccc3)cccc2c1=O`: the outcome with Mus musculus [1] and in the data set on Mus musculus [2] was inactive. In addition, the Activity with Mus musculus [3] is listed as 50%; with Mus musculus [4], 0%.
On to `COc1ccccc1/C=N\NC(=O)COc1cccc2c(=O)n(-c3ccccc3C)c(C)nc12`, for which the outcome in the data set on Mus musculus [1] and in the data set with Mus musculus [2] was inactive. The Activity with Mus musculus [3] is reported as 33%; with Mus musculus [4], 0%.
For `CCCC(CCC)C(=O)[O-].[Na+]` [VALPROATE SODIUM], the LD50 in [5] was 11900 µmol/kg. The Activity in the data set on Mus musculus [9] and with Mus musculus [10] was 100% each time. In data set [7], the TD50 at 0.5 min turned out to be 9600 µmol/kg. In addition, in the data set with Mus musculus [8], the ED50 turned out to be 4800 µmol/kg.
Regarding `Cc1ccccc1-n1c(C)nc2c(OCC(=O)NNC(=O)NN)cccc2c1=O`, the outcome in the data set on Mus musculus [1] and in the data set with Mus musculus [2] was inactive. The Activity with Mus musculus [3] was found to be 50%; with Mus musculus [4] it was 0%.
Take `Cc1ccccc1-n1c(C)nc2c(OCC(=O)NN)cccc2c1=O`: in [5], the LD50 turned out to be 2960 µmol/kg. In addition, the “Ratio TD50/ED50” value with Mus musculus [11] came to 2.7. Moreover, the outcome with Mus musculus [1] and in the data set on Mus musculus [2] was inactive. Further, in data set [6], the selectivity ratio turned out to be 10.2. In [7], the TD50 at 0.5 min was 790 µmol/kg. Besides, the figures for the Activity in the data set on Mus musculus [3] and with Mus musculus [4] were 100% and 50%, respectively. The ED50 with Mus musculus [8] came out at 290 µmol/kg.
On to `Cc1ccccc1-n1c(C)nc2c(OCC(=O)NNC(=S)NN)cccc2c1=O`, for which the outcome in the data set on Mus musculus [1] and in the data set on Mus musculus [2] was inactive. For the same molecule, the Activity in the data set with Mus musculus [3] is 66%; with Mus musculus [4], 33%.
For the molecule `Cc1ccccc1-n1c(C)nc2ccccc2c1=O` [METHAQUALONE], the selectivity ratio in data set [6] was 1.4. Moreover, the TD50 at 0.5 min in [7] stood at 1600 µmol/kg. In addition, the Activity in the data set with Mus musculus [12] and in the data set with Mus musculus [13] was 100% each time. In addition, in the data set with Mus musculus [8], the median effective dose (ED50) was 1400 µmol/kg.
In the case of `CSC(=S)NNC(=O)COc1cccc2c(=O)n(-c3ccccc3C)c(C)nc12`, the LD50 in [5] came out at 1170 µmol/kg. For the same molecule, the result in the data set with Mus musculus [1] and in the data set on Mus musculus [2] was inactive. Also, in data set [6], the selectivity ratio was 3.34. In addition, the TD50 at 0.5 min in [7] came out at 670 µmol/kg. Moreover, the Activity in the data set with Mus musculus [3] and in the data set with Mus musculus [4] was 100% each time. Also, in the data set with Mus musculus [8], the ED50 was 350 µmol/kg.
As for `Cc1ccccc1-n1c(C)nc2c(OCC(=O)NCCO)cccc2c1=O`, the outcome in the data set with Mus musculus [1] and in the data set with Mus musculus [2] was inactive. Also, the values for the Activity in the data set on Mus musculus [3] and in the data set on Mus musculus [4] were 50% and 0%, respectively.
`Cc1ccccc1-n1c(C)nc2c(OCC(=O)NNC(N)=O)cccc2c1=O`: the outcome with Mus musculus [1] and in the data set with Mus musculus [2] was inactive. The Activity with Mus musculus [3] turned out to be 50%; with Mus musculus [4] it was 0%.
